Experimental data as given in patent US20100092526A1, “NANOEMULSION THERAPEUTIC COMPOSITIONS AND METHODS OF USING THE SAME” (NanoBio Corporation, priority 2008, published 2010).
Converted amounts (≈) assume the structure as drawn. Where two headings read alike, the source gives them in different places.

Columns and labels:
Klebsiella pneumoniae = assay: MIC/MBC of nanoemulsions against gram-negative isolates (CLSI, alamar blue); type: cell-based; details: Klebsiella pneumoniae (n = 5)
Escherichia coli = assay: as above; type: cell-based; details: Escherichia coli (n = 5)
Proteus mirabilis = assay: as above; type: cell-based; details: Proteus mirabilis (n = 5)
Acinetobacter baumannii [1] = assay: as above; type: cell-based; details: Acinetobacter baumannii (n = 5)
Pseudomonas aeruginosa [2] = assay: as above; type: cell-based; details: Pseudomonas aeruginosa (n = 5)
Burkholderia cepacia = assay: as above; type: cell-based; details: Burkholderia cepacia (n = 5), nanoemulsions in the presence of 5 mM EDTA
[3] = system: Stenotrophomonas maltophilia; assay: as above; type: cell-based; details: Stenotrophomonas maltophilia (n = 5); nanoemulsions in the presence of 5 mM EDTA
Pseudomonas aeruginosa [4] = assay: MIC/MBC against CF isolates (CLSI, alamar blue); details: Pseudomonas aeruginosa
Burkholderia cenocepacia = assay: MIC/MBC against CF isolates (CLSI, alamar blue); details: for MBC / MIC: Burkholderia cenocepacia
[5] = system: Stenotrophomonas maltophilia; assay: MIC/MBC against CF isolates (CLSI, alamar blue); details: for MBC / MIC: Stenotrophomonas maltophilia
Acinetobacter baumannii [6] = assay: MIC/MBC against clinical isolates (CLSI, alamar blue)
[7] = nanoemulsions in the presence of 5 mM EDTA
[8] = nanoemulsions in the presence of 5 mM EDTA, in µg/mL
[9] = CF Stenotrophomonas isolate NB41
[10] = CF Stenotrophomonas isolate NB42
[11] = CF Stenotrophomonas isolate NB43
[12] = CF Stenotrophomonas isolate NB44
[13] = CF Stenotrophomonas isolate NB45
[14] = CF Stenotrophomonas isolate Steno 1
[15] = CF Stenotrophomonas isolate Steno 2
[16] = CF Stenotrophomonas isolate Steno 3
[17] = CF Stenotrophomonas isolate Steno 4
[18] = CF Stenotrophomonas isolate Steno 6
[19] = CF Stenotrophomonas isolate Steno 8
[20] = Stenotrophomonas, each drug alone
[21] = Acinetobacter baumannii, Acinetobacter isolate NB31
[22] = Acinetobacter baumannii, Acinetobacter isolate NB32
[23] = Acinetobacter baumannii, Acinetobacter isolate NB33
[24] = Acinetobacter baumannii, Acinetobacter isolate NB34
[25] = Acinetobacter baumannii, Acinetobacter isolate NB35
[26] = Acinetobacter baumannii, Acinetobacter isolate NB36
[27] = Acinetobacter baumannii, Acinetobacter isolate NB37
[28] = Acinetobacter baumannii, Acinetobacter isolate NB38
[29] = Acinetobacter baumannii, Acinetobacter isolate NB39
[30] = Acinetobacter baumannii, Acinetobacter isolate NB40

## NC[C@H]1O[C@H](O[C@H]2[C@H](O)[C@@H](O[C@H]3O[C@H](CO)[C@@H](O)[C@H](N)[C@H]3O)[C@H](N)C[C@@H]2N)[C@H](N)C[C@@H]1O [Tobramycin]
Klebsiella pneumoniae
  % resistant: 20.0%
  % susceptible: 80.0%
Klebsiella pneumoniae; [7]
  MIC50: 0.25 µg/mL
Klebsiella pneumoniae; [8]
  MIC Range: 0.25-16
Escherichia coli
  % resistant: 20.0%
  % susceptible: 80.0%
Escherichia coli; [7]
  MIC50: 0.5 µg/mL
Escherichia coli; [8]
  MIC Range: 0.25-16
Proteus mirabilis
  % resistant: 0.0%
  % susceptible: 100.0%
Proteus mirabilis; [7]
  MIC50: 1 µg/mL
Proteus mirabilis; [8]
  MIC Range: 0.25-1
Acinetobacter baumannii [1]
  % resistant: 20.0%
  % susceptible: 80.0%
Acinetobacter baumannii [1]; [7]
  MIC50: 0.5 µg/mL
Pseudomonas aeruginosa [2]
  % resistant: 0.0%
  % susceptible: 100.0%
Pseudomonas aeruginosa [2]; [7]
  MIC50: 0.5 µg/mL
Pseudomonas aeruginosa [2]; [8]
  MIC Range: 0.25-1
Burkholderia cepacia
  MIC50: > 16 µg/mL
Burkholderia cepacia; in µg/mL
  MIC Range: >16
[3]
  MIC50: > 16 µg/mL
Pseudomonas aeruginosa [4]
  MIC50: 1 µg/mL (≈ 2.14 µM)
  MIC90: 16 µg/mL (≈ 34.2 µM)
Pseudomonas aeruginosa [4]; CF Pseudomonas isolate NB1
  MBC: 16 µg/mL (≈ 34.2 µM)
  MIC: 1 µg/mL (≈ 2.14 µM)
Pseudomonas aeruginosa [4]; CF Pseudomonas isolate NB2
  MBC: 2 µg/mL (≈ 4.28 µM)
  MIC: 0.25 µg/mL (≈ 0.535 µM)
Pseudomonas aeruginosa [4]; CF Pseudomonas isolate NB3
  MBC: 4 µg/mL (≈ 8.56 µM)
  MIC: 0.5 µg/mL (≈ 1.07 µM)
Pseudomonas aeruginosa [4]; CF Pseudomonas isolate NB4
  MBC: 4 µg/mL (≈ 8.56 µM)
  MIC: 0.5 µg/mL (≈ 1.07 µM)
Pseudomonas aeruginosa [4]; CF Pseudomonas isolate NB5
  MBC: 4 µg/mL (≈ 8.56 µM)
  MIC: 0.5 µg/mL (≈ 1.07 µM)
Pseudomonas aeruginosa [4]; CF Pseudomonas isolate NB6
  MBC: 4 µg/mL (≈ 8.56 µM)
  MIC: 0.5 µg/mL (≈ 1.07 µM)
Pseudomonas aeruginosa [4]; CF Pseudomonas isolate NB7
  MBC: > 16 µg/mL
  MIC: 1 µg/mL (≈ 2.14 µM)
Pseudomonas aeruginosa [4]; CF Pseudomonas isolate NB8
  MBC: 8 µg/mL (≈ 17.1 µM)
  MIC: 1 µg/mL (≈ 2.14 µM)
Pseudomonas aeruginosa [4]; CF Pseudomonas isolate NB9
  MBC: 8 µg/mL (≈ 17.1 µM)
  MIC: 1 µg/mL (≈ 2.14 µM)
Pseudomonas aeruginosa [4]; CF Pseudomonas isolate NB10
  MBC: 4 µg/mL (≈ 8.56 µM)
  MIC: 0.5 µg/mL (≈ 1.07 µM)
Pseudomonas aeruginosa [4]; CF Pseudomonas isolate NB11
  MBC: 4 µg/mL (≈ 8.56 µM)
  MIC: 2 µg/mL (≈ 4.28 µM)
Pseudomonas aeruginosa [4]; CF Pseudomonas isolate NB12
  MBC: 8 µg/mL (≈ 17.1 µM)
  MIC: 0.5 µg/mL (≈ 1.07 µM)
Pseudomonas aeruginosa [4]; CF Pseudomonas isolate NB13
  MBC: 4 µg/mL (≈ 8.56 µM)
  MIC: 1 µg/mL (≈ 2.14 µM)
Pseudomonas aeruginosa [4]; CF Pseudomonas isolate NB14
  MBC: > 32 µg/mL
  MIC: 32 µg/mL (≈ 68.4 µM)
Pseudomonas aeruginosa [4]; CF Pseudomonas isolate NB15
  MBC: 8 µg/mL (≈ 17.1 µM)
  MIC: 0.5 µg/mL (≈ 1.07 µM)
Pseudomonas aeruginosa [4]; CF Pseudomonas isolate NB16
  MBC: 16 µg/mL (≈ 34.2 µM)
  MIC: 2 µg/mL (≈ 4.28 µM)
Pseudomonas aeruginosa [4]; CF Pseudomonas isolate NB17
  MBC: 32 µg/mL (≈ 68.4 µM)
  MIC: 16 µg/mL (≈ 34.2 µM)
Pseudomonas aeruginosa [4]; CF Pseudomonas isolate NB18
  MBC: > 32 µg/mL
  MIC: 16 µg/mL (≈ 34.2 µM)
Pseudomonas aeruginosa [4]; CF Pseudomonas isolate NB19
  MBC: 16 µg/mL (≈ 34.2 µM)
  MIC: 2 µg/mL (≈ 4.28 µM)
Pseudomonas aeruginosa [4]; CF Pseudomonas isolate NB20
  MBC: 8 µg/mL (≈ 17.1 µM)
  MIC: 0.5 µg/mL (≈ 1.07 µM)
Pseudomonas aeruginosa [4]; read-out: MBC 50, 20 CF Pseudomonas isolates
  MBC: 8 µg/mL (≈ 17.1 µM)
Pseudomonas aeruginosa [4]; read-out: MBC 50, second MBC 50 line of the summary, Stenotrophomonas, values equal those of the CF Pseudomonas isolates
  MBC: 8 µg/mL (≈ 17.1 µM)
Pseudomonas aeruginosa [4]; read-out: MBC 90, 20 CF Pseudomonas isolates
  MBC: > 16 µg/mL
Pseudomonas aeruginosa [4]; read-out: MBC 90, second MBC 90 line of the summary, Stenotrophomonas, values equal those of the CF Pseudomonas isolates
  MBC: > 16 µg/mL
Burkholderia cenocepacia; CF Burkholderia isolate NB21
  MBC: > 32 µg/mL
  MIC: 32 µg/mL (≈ 68.4 µM)
Burkholderia cenocepacia; CF Burkholderia isolate NB22
  MBC: > 32 µg/mL
  MIC: > 32 µg/mL
Burkholderia cenocepacia; CF Burkholderia isolate NB23
  MBC: > 32 µg/mL
  MIC: > 32 µg/mL
Burkholderia cenocepacia; CF Burkholderia isolate NB24
  MBC: > 32 µg/mL
  MIC: > 32 µg/mL
Burkholderia cenocepacia; CF Burkholderia isolate NB25
  MBC: > 32 µg/mL
  MIC: > 32 µg/mL
Burkholderia cenocepacia; CF Burkholderia isolate NB26
  MBC: > 32 µg/mL
  MIC: > 32 µg/mL
Burkholderia cenocepacia; CF Burkholderia isolate NB27
  MBC: > 32 µg/mL
  MIC: > 32 µg/mL
Burkholderia cenocepacia; CF Burkholderia isolate NB28b
  MBC: 4 µg/mL (≈ 8.56 µM)
  MIC: 1 µg/mL (≈ 2.14 µM)
Burkholderia cenocepacia; CF Burkholderia isolate NB29
  MBC: > 32 µg/mL
  MIC: > 32 µg/mL
Burkholderia cenocepacia; CF Burkholderia isolate NB30
  MBC: 32 µg/mL (≈ 68.4 µM)
  MIC: 32 µg/mL (≈ 68.4 µM)
Burkholderia cenocepacia; Burkholderia, each drug alone
  MBC 50: >32 µg/mL
  MBC 90: >32 µg/mL
  MIC90: >32 µg/mL
[5]; [9]
  MBC: > 32 µg/mL
  MIC: > 32 µg/mL
[5]; [10]
  MBC: > 32 µg/mL
  MIC: 32 µg/mL (≈ 68.4 µM)
[5]; [11]
  MBC: > 32 µg/mL
  MIC: > 32 µg/mL
[5]; [12]
  MBC: > 32 µg/mL
  MIC: > 32 µg/mL
[5]; [13]
  MBC: > 32 µg/mL
  MIC: > 32 µg/mL
[5]; [14]
  MBC: > 32 µg/mL
  MIC: > 32 µg/mL
[5]; [15]
  MBC: > 32 µg/mL
  MIC: > 32 µg/mL
[5]; [16]
  MBC: > 32 µg/mL
  MIC: > 32 µg/mL
[5]; [17]
  MBC: > 32 µg/mL
  MIC: > 32 µg/mL
[5]; [18]
  MBC: 32 µg/mL (≈ 68.4 µM)
  MIC: 16 µg/mL (≈ 34.2 µM)
[5]; [19]
  MBC: > 32 µg/mL
  MIC: > 32 µg/mL
[5]; [20]
  MBC 50: >32 µg/mL
  MBC 90: >32 µg/mL
  MIC50: >32 µg/mL
  MIC90: >32 µg/mL
Acinetobacter baumannii [6]; Acinetobacter baumannii
  MIC50: 1 µg/mL (≈ 2.14 µM)
  MIC90: 16 µg/mL (≈ 34.2 µM)
Acinetobacter baumannii [6]; [21]
  MBC: 1 µg/mL (≈ 2.14 µM)
  MIC: 1 µg/mL (≈ 2.14 µM)
Acinetobacter baumannii [6]; [22]
  MBC: 4 µg/mL (≈ 8.56 µM)
  MIC: 1 µg/mL (≈ 2.14 µM)
Acinetobacter baumannii [6]; [23]
  MBC: 8 µg/mL (≈ 17.1 µM)
  MIC: 2 µg/mL (≈ 4.28 µM)
Acinetobacter baumannii [6]; [24]
  MBC: > 32 µg/mL
  MIC: 16 µg/mL (≈ 34.2 µM)
Acinetobacter baumannii [6]; [25]
  MBC: 16 µg/mL (≈ 34.2 µM)
  MIC: 2 µg/mL (≈ 4.28 µM)
Acinetobacter baumannii [6]; [26]
  MBC: 0.5 µg/mL (≈ 1.07 µM)
  MIC: 0.5 µg/mL (≈ 1.07 µM)
Acinetobacter baumannii [6]; [27]
  MBC: 2 µg/mL (≈ 4.28 µM)
  MIC: 0.5 µg/mL (≈ 1.07 µM)
Acinetobacter baumannii [6]; [28]
  MBC: 16 µg/mL (≈ 34.2 µM)
  MIC: 1 µg/mL (≈ 2.14 µM)
Acinetobacter baumannii [6]; [29]
  MBC: 4 µg/mL (≈ 8.56 µM)
  MIC: 2 µg/mL (≈ 4.28 µM)
Acinetobacter baumannii [6]; [30]
  MBC: > 32 µg/mL
  MIC: > 32 µg/mL
Acinetobacter baumannii [6]; Acinetobacter baumannii, read-out: MBC 50, 10 Acinetobacter isolates
  MBC: 4 µg/mL (≈ 8.56 µM)
Acinetobacter baumannii [6]; Acinetobacter baumannii, read-out: MBC 50, Acinetobacter, each drug alone
  MBC: 4 µg/mL (≈ 8.56 µM)
Acinetobacter baumannii [6]; Acinetobacter, each drug alone
  MBC 90: >32 µg/mL
  MIC50: 1 µg/mL (≈ 2.14 µM)
  MIC90: 16 µg/mL (≈ 34.2 µM)
